Laboratory results: patent publication US11426422B2, “SHP2 inhibitors and methods of use thereof” (Research Development Foundation, priority 2018, dated 2022)

How the values were obtained:
[1] = system: HFD-fed mice; assay: glucose tolerance test in HFD-fed mice; type: in vivo; settings: 60 mg/kg daily oral gavage for 6 days; male mice fed HFD 5 weeks; 14 h fasted
Method: (§1) (FIG. 3A) Glucose tolerance test in 14 h fasted male mice fed a HFD for 5 weeks. […] At 1 day after drug treatment, glucose tolerance test was performed. Mean±SEM. (FIG. 3B) Insulin tolerance test of mice treated as described in FIG. 3A. Mean±SEM. […] The liver sections were stained with anti-IR (red) and DAPI (blue). Scale bars, 5 μm. (FIG. 3D) Quantification of the ratios of PM and IC IR signals of the livers in C (mean±SD; *p<0.0001). […] Cell lysates were blotted with the indicated antibodies.
(§2) The IR staining at the PM in liver sections from mice fed with HFD was weak, and insulin stimulation further reduced it and caused IR endocytosis (FIGS. 3C and D).
(§3) All animals were maintained in a specific antigen-free barrier facility with 12 h light/dark cycles (6 AM on and 6 PM off). Mice were fed a standard rodent chow (2016 Teklad Global 16% protein rodent diet, Harlan Laboratories). […] For glucose tolerance test, mice were fasted for 14 h, and their blood glucose levels (T=0) were measured with tail bleeding using a glucometer (AlphaTRAK®). […] Blood glucose levels were measured at 15, 30, 60, and 120 min after glucose injection. For insulin tolerance test, mice fasted for 4 h were injected intraperitoneally with recombinant human insulin (Eli Lilly) at 1 U/kg body weight, and their blood glucose levels were measured at 0, 15, 30 and 60 min after injection.

[2] = body weight of HFD-fed mice; type: in vivo; settings: 60 mg/kg daily oral gavage; 7 days post administration
Method: FIGS. 8A-B. Effects of the SHP2 inhibitor on body weight and insulin signaling in HFD-WT mice. […] Mean±SD. (FIG. 8B) Quantification of the relative band intensities in FIG. 3E. Mean±SD; n=3 independent experiments.
as §2
as §3, with “Laboratories). For inducing insulin resistance, C57BL/6J (Stock No. 000664, Jackson laboratory) were fed a high-fat (60%) diet (OpenSource Diets, Cat. No. D12492). For in vivo pharmacological assays, 6-8-weeks-old male mice were fed high-fat diet (HFD) for 5 weeks. Two days before drug administration, mice were switched to normal chow.” for “Laboratories).”

[3] = system: HFD-fed mice; assay: insulin tolerance test in HFD-fed mice; type: in vivo; settings: 60 mg/kg daily oral gavage for 6 days; male mice fed HFD 5 weeks; insulin 1 U/kg
Method: as §1, §2, §3

[4] = system: HepG2 cells expressing IR-GFP mutants; assay: cellular localization of IR-GFP mutants in HepG2 cells after inhibitors; type: cell-based; settings: starved 14 h, inhibitors 4 h, no insulin
Excerpt: FIGS. 4A-E. Dysregulation of IR endocytosis as a potential contributing factor to human insulin resistance syndromes. (FIG. 4A) Representative images of liver specimens from human non-diabetes and diabetes patients stained with DAPI (blue) and anti-IR (red) and anti-ZO-1 (green) antibodies. Scale bars, 40 μm. (FIG. 4B) Quantification of the percentage of cells with positive IR PM signals in liver specimens in FIG. 4A (mean±SD; *p<0.0001). (FIG. 4C) HepG2 cells stably expressing IR-GFP R1020Q, V1054M, A1075D, V1086E, or I1143T were serum starved and stained with anti-GFP and anti-RAB7 antibodies. Scale bar, 5 μm. (FIG. 4D) Quantification of the ratios of PM and IC IR-GFP signals of cells in FIG. 4C (mean±SD; *p<0.0001). (FIG. 4E) Targeting feedback regulation of IR endocytosis for diabetes treatment. Left panel depicts the feedback regulation of IR endocytosis by ERK1/2 and SHP2 during unperturbed insulin signaling.
FIGS. 9A-D. Characterization of IR mutations found in human patients. (FIG. 9A) HepG2 cells expressing IR-GFP Class I mutants (P997T, V1012M, A1055V, K1095E, R1119Q, H1157R, R1191Q, Y1361C, or R1378Q) were starved for 14 h, treated with the indicated inhibitors for 4 h, and stained with anti-GFP (IR; green) and DAPI (blue). Scale bar, 5 m. (FIG. 9B) HepG2 cells expressing IR-GFP Class II mutants (R1020Q, V1054M, A1075D, V1086E, or I1143T) were analyzed as described in FIG. 9A. (FIG. 9C) HepG2 cells expressing IR-GFP Class III mutants (A1162E or W1220L) were analyzed as described in A. (FIG. 9D) HepG2 cells expressing IR-GFP WT, R1020Q, or V1054M were serum starved for 14 h and treated with DMSO or 80 μM Dynasore for 4 h. Cell lysates were blotted with the indicated antibodies.
Mutations of IR are known to cause inherited severe insulin resistance syndromes, but the mechanisms by which these mutations affect IR function have not been systematically explored. HepG2 cell lines were generated which stably expressed IR mutants fused to GFP, and the subcellular localization of these IR-GFP proteins was examined (FIGS. 9A-C and Table 1).
There were three distinct classes of IR mutants based on their subcellular localization in the unstimulated state. Class I mutants localized to the PM. […] Thus, certain IR mutations found in human insulin resistance syndromes perturbs IR kinase regulation and causes premature IR endocytosis.
Cellular localization of IR mutants was examined after inhibiting the SHP2 or MAPK pathways (FIGS. 4C-D, and FIGS. 9A-C).
Indirect immunofluorescence microscopy was performed on cells grown on coverslips and fixed in cold methanol at −20° C. for 10 min. The fixed cells were incubated with PBS for 30 min and 3% BSA in 0.1% PBST for 1 h, and then treated with diluted antibodies in 0.3% BSA in 0.1% PBST at 4° C. overnight. After being washed, cells were incubated with fluorescent secondary antibodies and mounted on microscope slides in ProLong Gold Antifade reagent with DAPI (Invitrogen). Images of fixed cells were acquired as a series of 0.4 m stacks with a DeltaVision® system (Applied Precision®, Issaquah, Wash.). Raw images were deconvolved using the iterative algorithm implemented in the softWoRx® software (Applied Precision®, Issaquash, Wash.). The central section of a 0.4 μm z-stack containing 3 contiguous focal planes was used for quantification. The cell edges were defined with Image J. The whole cell signal intensity (WC) and intracellular signal intensity (IC) were measured. The plasma membrane signal intensity (PM) was calculated by subtracting IC from WC. Identical exposure times and magnifications were used for all comparative analyses.

CC1(N)CCN(c2cnc(-c3cccc(Cl)c3Cl)c(N)n2)CC1 [SHP099]
glucose tolerance [1]: markedly increased glucose tolerance | body weight [2]: did not change the body weight | insulin sensitivity [3]: markedly increased | PM levels of Class I and III IR mutants [4]: not those of Class I and III IR mutants | PM levels of Class II IR mutants ([4]; R1020Q, V1054M, A1075D, V1086E, I1143T): significantly enhanced the PM levels of Class II IR mutants
